Drawing on article PMC12700220, “Synthesis, photochemical and biological evaluation of novel photoswitchable glycomimetic ligands of Pseudomonas aeruginosa LecB” (RSC Advances, 2025), this text covers Kd for two compounds.

For assay [1], the target named is T1, LecB (Pseudomonas aeruginosa, UniProt Q9HYN5). In words: ITC after […] nm illumination. In kind it is binding. Also noted: N-terminal 6xHis-tagged LecB.
The target of assay [2] is T1, LecB. In words: (soak, […] Å) and ITC. Also on record: N-terminal 6xHis-tagged LecB (homotetramer). In kind it is binding.

T1 sequence (Q9HYN5 entry or part of it): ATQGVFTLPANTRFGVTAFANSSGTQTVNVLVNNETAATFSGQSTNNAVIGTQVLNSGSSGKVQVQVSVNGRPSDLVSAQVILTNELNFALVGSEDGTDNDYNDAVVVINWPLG

On to `C[C@@H]1O[C@H](CNS(=O)(=O)c2ccc(/N=N\c3ccccc3)cc2)[C@@H](O)[C@H](O)[C@@H]1O` (mixture of isomers) [photofucose-2, cis-photofucose-2], for which the dissociation constant (Kd) at LecB [1] amounted to 4.71 ± 2.61 µM. At LecB [2], `C[C@@H]1O[C@H](CNS(=O)(=O)c2ccc(/N=N/c3ccccc3)cc2)[C@@H](O)[C@H](O)[C@@H]1O` [photofucose-2, 4-((E)-phenyldiazenyl)-N-(((2R,3S,4R,5S,6S)-3,4,5-trihydroxy-6-methyltetrahydro-2H-pyran-2-yl)methyl)benzenesulfonamide] gave a Kd of 1.82 ± 0.408 µM.
